Data from BindingDB's records for patent US12227501 (Bayer Aktiengesellschaft, 2025).

Assays:
[1] = target: T1, Epidermal growth factor receptor [669-1210] (UniProt P00533); assay: WT-EGFR Kinase Assay
T1 construct: 669-1210
Procedure: For the assay 50 nl of a 100 fold concentrated solution of the test compound in DMSO was pipetted into either a black low volume 384 well microtiter plate or a black 1536 well microtiter plate (both Greiner Bio-One, Frickenhausen, Germany), 2 μL of a solution of EGFR in aqueous assay buffer [50 mM Hepes pH 7.0, 10 mM MgCl2, 1 mM dithiothreitol, 0.5 mM EGTA, 0.3 mM activated sodium ortho-vanadate, 0.005% (w/v) bovine serum albumin, 0.005% (v/v) Tween-20] were added and the mixture was incubated for 15 min at 22° C. to allow pre-binding of the test compounds to the enzyme before the start of the kinase reaction. […] The concentration of EGFR was adjusted depending of the activity of the enzyme lot and was chosen appropriate to have the assay in the linear range, typical concentration was 7.6 pg/μL. […] Subsequently the amount of phosphorylated substrate was evaluated by measurement of the resonance energy transfer from the PT66-Tb-Cryptate to the streptavidine-XL665.

[2] = target: T2, Casein kinase I isoform alpha (Homo sapiens, UniProt P48729); assay: CSNK1A1 Assay 1
T2 sequence (P48729 whole entry, canonical isoform): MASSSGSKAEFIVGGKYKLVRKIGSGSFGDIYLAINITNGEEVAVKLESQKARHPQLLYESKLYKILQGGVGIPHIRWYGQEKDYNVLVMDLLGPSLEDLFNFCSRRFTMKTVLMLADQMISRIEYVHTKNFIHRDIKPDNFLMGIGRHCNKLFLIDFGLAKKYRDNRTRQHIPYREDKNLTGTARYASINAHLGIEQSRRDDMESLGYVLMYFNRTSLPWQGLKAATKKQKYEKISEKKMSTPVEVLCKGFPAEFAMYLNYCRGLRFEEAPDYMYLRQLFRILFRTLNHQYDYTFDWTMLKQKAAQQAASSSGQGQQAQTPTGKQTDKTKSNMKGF
Procedure: Inhibitory activity of compounds of the present invention in presence of 1 μM adenosine-tri-phosphate (ATP) was quantified employing the CSNK1A1 assay as described in the following paragraphs. In essence, the enzyme activity is measured by quantification of the adenosine-di-phosphate (ADP), which is generated as a co-product of the enzyme reaction, via the “ADP-Glo™ Kinase Assay” kit from the company Promega. This detection system works as follows: In a first step the ATP not consumed in the kinase reaction is quantitatively converted to cAMP employing an adenylate cyclase (“ADP-Glo-reagent”), then the adenylate cyclase is stopped and the ADP generated in the kinase reaction converted to ATP which generates in a luciferase-based reaction a glow-luminescence signal (“Kinase Detection Reagent”). Recombinant fusion protein of N-terminal Glutathion-S-Transferase (GST) and full-length human CSNK1A1, expressed by baculovirus infected insect cells and purified via Glutathion affinity chromatography, was purchased from Life Technologies (product no. PV4174) and used as enzyme. As substrate for the kinase reaction the biotinylated peptide Btn-Ahx-[…] (C-terminus in amide form) was used which can be purchased e.g. from the company Biosyntan (Berlin-Buch, Germany).

[3] = target: T2, Casein kinase I isoform alpha; assay: CSNK1A1 High ATP Assay
Procedure: For the assay 50 nl of a 100 fold concentrated solution of the test compound in DMSO was pipetted into a white low volume 384-well microtiter plate (Greiner Bio-One, Frickenhausen, Germany), 2 μL of a solution of CSNK1A1 in aqueous assay buffer [50 mM HEPES pH 7.5, 10% (v/v) glycerol, 10 mM MgCl2, 50 mM NaCl, 1 mM dithiothreitol, 0.01% (w/v) bovine serum albumin, 0.01% (v/v) Triton X-100] were added and the mixture was incubated for 15 min at 22° C. to allow pre-binding of the test compounds to the enzyme before the start of the kinase reaction. […] The concentration of CSNK1A1 was adjusted depending of the activity of the enzyme lot and was chosen appropriate to have the assay in the linear range, a typical concentration is about 0.4 ng/μL. The reaction was stopped by the addition of 2.5 μL of “ADP-Glo-reagent” (1:1.5 fold diluted with water) and the resulting mixture was incubated at 22° C. for 1 h to convert the ATP not consumed in the kinase reaction completely […]. Subsequently 2.5 μL of the “kinase detection reagent” (1.2 fold more concentrated than recommended by the producer) were added, the resulting mixture was incubated at 22° C. for 1 h and then the luminescence measured with a suitable measurement instrument (e.g. Viewlux™ from Perkin-Elmer). The amount of emitted light was taken as a measure for the amount of ADP generated and thereby for the activity of the CSNK1A1.

[4] = target: Casein kinase I isoform delta (Homo sapiens, UniProt P48730); assay: CSNK1D Assay
Chain of Casein kinase I isoform delta (P48730 whole entry, canonical isoform): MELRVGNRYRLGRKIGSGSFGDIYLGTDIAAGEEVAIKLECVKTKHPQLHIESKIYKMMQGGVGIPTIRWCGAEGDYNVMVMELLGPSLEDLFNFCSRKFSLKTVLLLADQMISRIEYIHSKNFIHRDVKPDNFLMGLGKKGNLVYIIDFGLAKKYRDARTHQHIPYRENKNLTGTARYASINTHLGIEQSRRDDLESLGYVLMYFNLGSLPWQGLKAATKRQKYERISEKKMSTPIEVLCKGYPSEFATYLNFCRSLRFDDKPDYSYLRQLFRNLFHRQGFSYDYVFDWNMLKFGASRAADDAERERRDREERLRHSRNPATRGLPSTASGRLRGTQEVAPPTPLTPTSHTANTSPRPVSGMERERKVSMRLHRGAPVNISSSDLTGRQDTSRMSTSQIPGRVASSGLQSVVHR
Procedure: For the assay 50 nl of a 100 fold concentrated solution of the test compound in DMSO was pipetted into a white 1536-well microtiter plate (Greiner Bio-One, Frickenhausen, Germany), 2 μL of a solution of CSNK1D in aqueous assay buffer [50 mM HEPES pH 7.5, 10% (v/v) glycerol, 10 mM MgCl2, 50 mM NaCl, 1 mM dithiothreitol, 0.01% (w/v) bovine serum albumin, 0.01% (v/v) Triton X-100] were added and the mixture was incubated for 15 min at 22° C. to allow pre-binding of the test compounds to the enzyme before the start of the kinase reaction. […] The concentration of CSNK1 D was adjusted depending of the activity of the enzyme lot and was chosen appropriate to have the assay in the linear range, a typical concentration is about 0.5 ng/μL. The reaction was stopped by the addition of 2.5 μL of “ADP-Glo-reagent” (1:1.5 fold diluted with water) and the resulting mixture was incubated at 22° C. for 1 h to convert the ATP not consumed in the kinase reaction completely […]. Subsequently 2.5 μL of the “kinase detection reagent” (1.2 fold more concentrated than recommended by the producer) were added, the resulting mixture was incubated at 22° C. for 1 h and then the luminescence measured with a suitable measurement instrument (e.g. Viewlux™ from Perkin-Elmer). The amount of emitted light was taken as a measure for the amount of ADP generated and thereby for the activity of the CSNK1D.

[5] = target: T2, Casein kinase I isoform alpha; assay: CSNK1A1 Assay 2
Procedure: For the assay 50 nl of a 100 fold concentrated solution of the test compound in DMSO was pipetted into a white 1536-well microtiter plate (Greiner Bio-One, Frickenhausen, Germany), 2 μL of a solution of CSNK1A1 in aqueous assay buffer [50 mM HEPES pH 7.5, 10% (v/v) glycerol, 10 mM MgCl2, 50 mM NaCl, 1 mM dithiothreitol, 0.01% (w/v) bovine serum albumin, 0.01% (v/v) Triton X-100] were added and the mixture was incubated for 15 min at 22° C. to allow pre-binding of the test compounds to the enzyme before the start of the kinase reaction. […] The concentration of CSNK1A1 was adjusted depending of the activity of the enzyme lot and was chosen appropriate to have the assay in the linear range, a typical concentrations are about 0.0375 ng/μL. The reaction was stopped by the addition of 2.5 μL of “ADP-Glo-reagent” (1:1.5 fold diluted with water) and the resulting mixture was incubated at 22° C. for 1 h to convert the ATP not consumed in the kinase reaction completely […]. Subsequently 2.5 μL of the “kinase detection reagent” (1.2 fold more concentrated than recommended by the producer) were added, the resulting mixture was incubated at 22° C. for 1 h and then the luminescence measured with a suitable measurement instrument (e.g. Viewlux™ from Perkin-Elmer).

T1 sequence (P00533 669-1210): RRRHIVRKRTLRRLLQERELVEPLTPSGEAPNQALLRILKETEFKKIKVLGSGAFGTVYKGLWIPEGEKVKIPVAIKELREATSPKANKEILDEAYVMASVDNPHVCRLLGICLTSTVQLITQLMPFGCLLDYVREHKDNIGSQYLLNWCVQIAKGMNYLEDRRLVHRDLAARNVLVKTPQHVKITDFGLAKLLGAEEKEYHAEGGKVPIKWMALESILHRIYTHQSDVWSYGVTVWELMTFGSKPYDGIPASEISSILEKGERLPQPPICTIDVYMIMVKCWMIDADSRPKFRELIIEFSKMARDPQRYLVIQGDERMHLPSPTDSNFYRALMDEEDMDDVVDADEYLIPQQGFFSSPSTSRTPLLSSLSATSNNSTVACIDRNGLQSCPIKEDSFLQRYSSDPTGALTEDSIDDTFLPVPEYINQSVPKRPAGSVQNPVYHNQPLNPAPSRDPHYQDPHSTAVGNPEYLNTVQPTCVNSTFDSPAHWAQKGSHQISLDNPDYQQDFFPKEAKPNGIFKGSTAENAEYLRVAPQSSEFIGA

Question: What does the source list for `CN1CCc2[nH]c(-c3ccnc(NC(=O)[C@@H]4C[C@@H]4F)c3)c(Nc3ccccc3)c2C1=O` [US10428063, Example 40]?
Answer: IC50 [1]: 85.5 nM; IC50 [2]: 24.1 nM

Question: With `CC1(C)Cc2[nH]c(-c3ccnc(NC(=O)Cc4ccc(F)cc4)c3)c(Nc3ccccc3)c2C(=O)N1` [US12227501, Example 22] as the molecule, how does the IC50 [1] read?
Answer: 815 nM

Question: And the IC50 [3]?
Answer: 54.7 nM

Question: And the IC50 [4]?
Answer: 11.9 nM

Question: And the IC50 [5]?
Answer: 4.23 nM

Question: What does the source list for `CC(C(=O)Nc1cc(-c2[nH]c3c(c2Nc2ccccc2F)C(=O)N(C)CC3)ccn1)c1ccc(F)cc1` (stereo not drawn) [US12227501, Example 29]?
Answer: IC50 [3]: 138 nM; IC50 [5]: 3.19 nM

Question: How did the IC50 [1] turn out when `O=C(Cc1ccc(F)cc1)Nc1cc(-c2[nH]c3c(c2Nc2ccccc2)C(=O)N(CC(F)(F)F)CC3)ccn1` [US12227501, Example 36] was run?
Answer: > 20000 nM

Question: And the IC50 [3]?
Answer: 1080 nM

Question: What about the IC50 [5] of the same molecule?
Answer: 11.3 nM

Question: Which results are given for `CC(C(=O)Nc1cc(-c2[nH]c3c(c2Nc2ccccc2)C(=O)N(CC(F)(F)F)CC3)ccn1)c1ccc(F)cc1` (stereo not drawn) [US12227501, Example 37]?
Answer: IC50 [1]: > 20000 nM; IC50 [3]: > 1630 nM; IC50 [5]: 22.6 nM

Question: What does the source list for `Cc1cccc(CC(=O)Nc2cc(-c3[nH]c4c(c3Nc3ccccc3)C(=O)N(C)CC4)ccn2)c1` [US12227501, Example 70]?
Answer: IC50 [1]: 2040 nM; IC50 [3]: 140 nM; IC50 [4]: 3.66 nM; IC50 [5]: 3.2 nM

Question: Which IC50 [1] does the source give for `Cc1ccccc1CC(=O)Nc1cc(-c2[nH]c3c(c2Nc2ccccc2)C(=O)N(C)CC3)ccn1` [US12227501, Example 71] here?
Answer: 7430 nM

Question: And the IC50 [3]?
Answer: 241 nM

Question: And the IC50 [4]?
Answer: 6.47 nM

Question: What about the IC50 [5] of the same molecule?
Answer: 4.79 nM

Question: Which results are given for `Cc1ccccc1Nc1c(-c2ccnc(NC(=O)Cc3ccc(F)cc3)c2)[nH]c2c1C(=O)NC(C)(C)C2` [US12227501, Example 113]?
Answer: IC50 [3]: 166 nM; IC50 [4]: 16.1 nM; IC50 [5]: 13.7 nM

Question: How did the IC50 [3] turn out when `CC1(C)Cc2[nH]c(-c3ccnc(NC(=O)Cc4ccc(F)cc4)c3)c(Nc3cccc(F)n3)c2C(=O)N1` [US12227501, Example 126] was run?
Answer: 47.8 nM

Question: What about the IC50 [4] of the same molecule?
Answer: 14.4 nM

Question: And the IC50 [5]?
Answer: 4.44 nM

Question: Which results are given for `CC1(C)Cc2[nH]c(-c3ccnc(NC(=O)Cc4ccc(F)cc4)c3)c(Nc3cccc(F)n3)c2C(=O)N1` [US12227501, Example 127]?
Answer: IC50 [1]: > 20000 nM; IC50 [3]: 23.1 nM; IC50 [5]: 4.74 nM

Question: `Cc1c(F)cccc1Nc1c(-c2ccnc(NC(=O)Cc3ccc(F)cc3)c2)[nH]c2c1C(=O)NC(C)(C)C2` [US12227501, Example 131] was tested. Which IC50 [1] did it give?
Answer: 1090 nM

Question: And the IC50 [3]?
Answer: 464 nM

Question: And the IC50 [4]?
Answer: 11.6 nM

Question: And the IC50 [5]?
Answer: 9.38 nM

Question: For `Cc1ccccc1Nc1c(-c2ccnc(NC(=O)Cc3ccc(F)cc3)c2)[nH]c2c1C(=O)NC1(CCC1)C2` [US12227501, Example 142], which IC50 [1] is on record?
Answer: > 20000 nM

Question: And the IC50 [3]?
Answer: 12.3 nM

Question: What about the IC50 [4] of the same molecule?
Answer: 9.35 nM

Question: And the IC50 [5]?
Answer: 5.1 nM

Question: What does the source list for `CN1C(=O)c2c([nH]c(-c3ccnc(NC(=O)Cc4ccc(F)cc4)c3)c2Nc2ccccc2)CC12CCC2` [US12227501, Example 156]?
Answer: IC50 [1]: 6660 nM; IC50 [3]: 29.7 nM; IC50 [4]: 9.38 nM; IC50 [5]: 6.09 nM
